Columns and labels:
[1] = tested on: beagle dogs; assay: Urinary glucose excretion in beagle dogs; format: in vivo; details: separate experiment (Table 4A)
Description: Each test compound was dissolved in 10% PEG400 and administered orally to overnight-fasted beagle dogs by gavage at the dose level of 0.03 mg/kg. Control dogs were given 10% PEG400 only. One hour post dosing, glucose solution (2 g/kg, 5 mL/kg) was administered by oral gavage. Urine was collected within metabolic cages from 0 to 8 hours, and 8 to 24 hours post-dosing for urine volume and glucose measurement. Food was removed 16 hours before dosing and then provided 3 hours after dosing. Water was supplied ad libitum. The concentration of urinary glucose was determined at 8 hours and 24 hours post-dose using a biochemistry analyzer.

[2] = Pharmacokinetic parameters in SD rats; format: in vivo, Sprague-Dawley rats; details: single oral 3 mg/kg in 30% PEG400, plasma
Description: The pharmacokinetic study of each test compound was conducted in 4 Sprague-Dawley rats following a single oral administration of 3 mg/kg of the compound. The dose was prepared by dissolving test article in appropriate volume of 30% PEG400. The plasma samples were collected from the orbital plexus at 0.083, 0.25, 0.50, 1.0, 2.0, 4.0, 6.0, 8.0, 12 and 24 hours post dose, and the plasma concentrations were determined by a developed LC-MS/MS method.

[3] = molecular target: T1, human SGLT1 (Homo sapiens, UniProt P13866); details: read-out: SGLT1 IC50; COS-7 cells expressing human SGLT1; 25% human serum; 2 hours
T1 sequence (P13866 1-664): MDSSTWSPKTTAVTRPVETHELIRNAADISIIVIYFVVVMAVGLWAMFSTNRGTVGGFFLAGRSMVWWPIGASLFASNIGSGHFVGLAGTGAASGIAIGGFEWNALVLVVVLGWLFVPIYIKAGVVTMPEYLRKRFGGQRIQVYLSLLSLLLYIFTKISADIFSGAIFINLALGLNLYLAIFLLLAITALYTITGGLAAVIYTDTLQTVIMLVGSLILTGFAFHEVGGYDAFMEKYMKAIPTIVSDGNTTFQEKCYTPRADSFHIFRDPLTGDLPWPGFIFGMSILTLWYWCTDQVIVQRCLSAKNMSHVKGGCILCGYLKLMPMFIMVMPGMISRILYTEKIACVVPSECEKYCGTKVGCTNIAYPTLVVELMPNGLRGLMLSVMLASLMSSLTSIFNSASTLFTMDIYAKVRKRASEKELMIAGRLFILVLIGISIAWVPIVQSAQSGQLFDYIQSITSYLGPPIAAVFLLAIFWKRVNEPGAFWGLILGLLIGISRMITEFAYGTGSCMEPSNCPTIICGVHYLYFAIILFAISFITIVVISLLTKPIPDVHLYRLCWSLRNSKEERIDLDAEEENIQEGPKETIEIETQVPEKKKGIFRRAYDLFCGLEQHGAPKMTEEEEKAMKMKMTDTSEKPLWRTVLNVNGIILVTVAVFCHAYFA
Description: Full-length human SGLT1 cDNA in the pDream2.1 expression vector was obtained from GenScript Corporation and propagated in Escherichia coli strain DH5α using Luria-Bertani (LB) medium containing ampicillin. Plasmid DNA was isolated using the QIAGEN Plasmid Midi Kit (QIAGEN Inc.). […] Transfected cells were stored in DMEM containing 10% dimethyl sulfoxide (DMSO) at −80° C.
Cells expressing SGLT1 or SGLT2 were seeded on 96-well ScintiPlate scintillating plates (PerkinElmer, Inc.) in DMEM containing 10% FBS (1×10^5 cells per well in 1001 medium) incubated at 37° C. under 5% CO2 for 48 hours prior to the assay. […] Cells were washed twice with 150 μl of wash buffer (137 mM N-methylglucamine, 10 mM Tris/Hepes, pH 7.2) and methyl-α-D-[U-^14C]glucopyranoside uptake was quantified using a TopCount scintillation counter (PerkinElmer, Inc.). Sodium-dependent glucopyranoside uptake was measured by subtracting the values obtained with sodium-free buffer from those obtained using sodium buffer (average of triplicate determinations). The IC50 for SGLT2 and SGLT1 were determined, and the selectivity for SGLT2 inhibition was calculated by dividing the SGLT1 IC50 by the SGLT2 IC50.

[4] = molecular target: T2, CYP2C19 (Homo sapiens, UniProt P33261); assay: P450-Glo CYP screening kit, CYP2C19 inhibition; format: in vitro ADME; details: luminescence, read-out: IC50 2C19
T2 construct: purchased Promega
T2 sequence (P33261 whole entry): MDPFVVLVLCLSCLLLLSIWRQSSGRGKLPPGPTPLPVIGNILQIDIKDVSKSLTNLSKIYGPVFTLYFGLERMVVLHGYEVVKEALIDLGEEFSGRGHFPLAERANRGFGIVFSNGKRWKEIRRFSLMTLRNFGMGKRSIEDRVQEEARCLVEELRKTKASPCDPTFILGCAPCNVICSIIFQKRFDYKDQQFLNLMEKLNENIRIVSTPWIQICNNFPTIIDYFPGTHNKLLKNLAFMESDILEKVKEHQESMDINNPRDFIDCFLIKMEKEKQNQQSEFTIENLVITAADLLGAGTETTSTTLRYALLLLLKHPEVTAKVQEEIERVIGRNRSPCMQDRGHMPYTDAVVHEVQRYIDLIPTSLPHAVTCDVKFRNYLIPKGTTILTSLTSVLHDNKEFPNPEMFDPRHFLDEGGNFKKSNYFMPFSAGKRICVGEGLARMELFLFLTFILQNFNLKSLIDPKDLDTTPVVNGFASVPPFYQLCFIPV
Excerpt: (§1) P450-Glo™ CYP Screening Kits for CYP1A2, CYP3A4 and CYP2C19 were purchased from Promega. […] Luminescence was quantified using a Victor 3 spectrophotometer (PerkinElmer).

[5] = molecular target: T3, CYP1A2 (Homo sapiens, UniProt P05177); assay: P450-Glo CYP screening kit, CYP1A2 inhibition; format: in vitro ADME; details: luminescence, read-out: IC50 1A2
T3 construct: purchased Promega
T3 sequence (P05177 1-516): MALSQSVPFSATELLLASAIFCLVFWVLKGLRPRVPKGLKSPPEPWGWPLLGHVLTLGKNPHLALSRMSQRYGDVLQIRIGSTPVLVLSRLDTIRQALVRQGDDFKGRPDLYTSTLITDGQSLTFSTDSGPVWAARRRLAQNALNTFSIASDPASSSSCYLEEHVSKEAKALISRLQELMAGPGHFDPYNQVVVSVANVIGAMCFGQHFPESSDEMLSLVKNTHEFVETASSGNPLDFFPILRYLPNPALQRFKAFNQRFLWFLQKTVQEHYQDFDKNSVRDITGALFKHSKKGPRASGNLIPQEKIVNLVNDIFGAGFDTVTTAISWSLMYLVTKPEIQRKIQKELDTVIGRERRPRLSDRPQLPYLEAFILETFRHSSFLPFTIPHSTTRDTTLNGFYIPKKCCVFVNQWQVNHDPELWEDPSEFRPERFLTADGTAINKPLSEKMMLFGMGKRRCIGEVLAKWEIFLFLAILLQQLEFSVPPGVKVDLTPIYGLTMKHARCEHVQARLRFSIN
Excerpt: as §1

CL/F ([2]; Sprague-Dawley, rat) | AUC(0-t) ([2]; Sprague-Dawley, rat, read-out: AUC0-t (mean ± SD)) | Cmax (mean ± SD) [2] | t1/2 (mean ± SD) [2] | tmax (mean ± SD) [2] | IC50 [3] | IC50 [4] | IC50 [5] | Structure (SMILES) | Urinary Glucose Excretion in Dogs, 0-8 h (mean ± SD) ([1]; 0-8 h) | Urinary Glucose Excretion in Dogs, 0-24 h (mean ± SD) [1] | Urinary Glucose Excretion in Dogs, 8-24 h (mean ± SD) [1]
9.47 mL/min/kg | 5240 ± 715 ng·h/mL | 1638 ± 326 ng/mL | 3.55 ± 1.80 h | 0.56 ± 0.31 h | 0.54 µM | 195 µM | > 1000 µM | COc1ccc(Cc2cc([C@@H]3O[C@H](CO)[C@@H](O)[C@H](O)[C@H]3O)ccc2Cl)cc1 [Ref B, (2S,3R,4R,5S,6R)-2-(4-chloro-3-(4-methoxybenzyl)phenyl)-6-(hydroxymethyl)tetrahydro-2H-pyran-3,4,5-triol, reference compound] | 3322 ± 464 mg | 16726 ± 1507 mg | 13404 ± 1888 mg
 |  |  |  |  | 0.82 µM | 355 µM | > 1000 µM | [2H]C([2H])([2H])Oc1ccc(C([2H])([2H])c2cc([C@@H]3O[C@H](CO)[C@@H](O)[C@H](O)[C@H]3O)ccc2Cl)cc1 [compound 19, (2S,3R,4R,5S,6R)-2-(4-chloro-3-((4-(methoxy-d3)phenyl)methyl-d2)phenyl)-6-(hydroxymethyl)tetrahydro-2H-pyran-3,4,5-triol] |  | 15928 ± 321 mg | 12516 ± 485 mg
